Experiments:
Histone deacetylase 3 = Histone deacetylase 3 (Homo sapiens, UniProt O15379); experiment: Inhibition of human recombinant His6-tagged and GST-fuses HDAC3 expressed in insect High5 cells using Ac-Lys-Tyr-Lys(e-acetyl)-AMC as substrate after 24 hrs by fluorescence assay
Histone deacetylase 1 = Histone deacetylase 1 (Homo sapiens, UniProt Q13547); experiment: Inhibition of human recombinant His6-tagged and GST-fuses HDAC1 expressed in insect High5 cells using Ac-Lys-Tyr-Lys(e-acetyl)-AMC as substrate after 24 hrs by fluorescence assay
Sequence of Histone deacetylase 1 (Q13547 whole entry): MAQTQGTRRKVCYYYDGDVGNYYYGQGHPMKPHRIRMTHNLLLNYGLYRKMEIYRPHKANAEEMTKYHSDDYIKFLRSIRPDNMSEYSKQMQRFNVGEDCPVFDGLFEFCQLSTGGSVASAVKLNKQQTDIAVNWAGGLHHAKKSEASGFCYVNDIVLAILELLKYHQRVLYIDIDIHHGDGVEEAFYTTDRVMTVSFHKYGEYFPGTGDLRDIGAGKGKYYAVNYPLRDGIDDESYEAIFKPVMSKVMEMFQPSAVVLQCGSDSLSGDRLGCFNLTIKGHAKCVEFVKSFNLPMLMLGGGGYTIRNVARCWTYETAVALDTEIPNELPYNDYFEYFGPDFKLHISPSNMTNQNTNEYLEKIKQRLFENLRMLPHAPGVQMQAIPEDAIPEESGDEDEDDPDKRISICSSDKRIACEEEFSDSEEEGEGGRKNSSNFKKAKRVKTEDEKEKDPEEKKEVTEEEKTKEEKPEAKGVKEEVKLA

[1] = target: T1, Protein deacetylase HDAC6 (Homo sapiens, UniProt Q9UBN7); experiment: Inhibition of human recombinant His6-tagged and GST-fuses HDAC6 expressed in insect High5 cells using Boc-Lys(eacetyl)- AMC as substrate after 3 hrs by fluorescence assay
T1 sequence (Q9UBN7 whole entry): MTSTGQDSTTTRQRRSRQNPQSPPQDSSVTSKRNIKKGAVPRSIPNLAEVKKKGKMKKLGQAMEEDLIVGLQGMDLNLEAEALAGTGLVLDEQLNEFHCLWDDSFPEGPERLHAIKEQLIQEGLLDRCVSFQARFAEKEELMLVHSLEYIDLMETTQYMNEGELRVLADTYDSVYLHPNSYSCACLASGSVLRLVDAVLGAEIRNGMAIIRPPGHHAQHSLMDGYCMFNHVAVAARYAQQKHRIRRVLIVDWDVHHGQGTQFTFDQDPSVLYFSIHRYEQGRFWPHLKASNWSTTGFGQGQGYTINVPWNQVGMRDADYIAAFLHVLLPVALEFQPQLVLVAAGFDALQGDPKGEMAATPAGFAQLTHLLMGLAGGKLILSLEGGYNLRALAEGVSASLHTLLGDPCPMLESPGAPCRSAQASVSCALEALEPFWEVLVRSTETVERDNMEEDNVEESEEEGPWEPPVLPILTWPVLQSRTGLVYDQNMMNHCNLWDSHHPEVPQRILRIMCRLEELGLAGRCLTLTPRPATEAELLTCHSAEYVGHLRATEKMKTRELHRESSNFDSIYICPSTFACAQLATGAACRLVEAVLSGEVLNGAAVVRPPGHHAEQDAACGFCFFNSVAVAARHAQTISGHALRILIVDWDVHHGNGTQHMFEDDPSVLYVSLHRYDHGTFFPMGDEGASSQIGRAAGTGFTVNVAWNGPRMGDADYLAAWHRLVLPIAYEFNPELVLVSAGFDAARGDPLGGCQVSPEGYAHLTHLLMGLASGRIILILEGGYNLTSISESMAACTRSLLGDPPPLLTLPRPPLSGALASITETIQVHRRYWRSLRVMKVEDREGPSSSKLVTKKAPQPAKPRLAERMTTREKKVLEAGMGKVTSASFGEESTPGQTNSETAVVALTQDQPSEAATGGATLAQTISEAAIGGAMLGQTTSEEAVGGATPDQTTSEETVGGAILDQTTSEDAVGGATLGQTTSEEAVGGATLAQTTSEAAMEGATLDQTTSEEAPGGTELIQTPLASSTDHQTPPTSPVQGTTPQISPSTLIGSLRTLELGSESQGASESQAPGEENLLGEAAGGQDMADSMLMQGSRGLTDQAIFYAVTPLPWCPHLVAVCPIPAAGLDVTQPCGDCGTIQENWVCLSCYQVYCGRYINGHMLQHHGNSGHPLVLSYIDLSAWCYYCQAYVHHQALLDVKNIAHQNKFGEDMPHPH

Sequence of Histone deacetylase 3 (O15379 whole entry): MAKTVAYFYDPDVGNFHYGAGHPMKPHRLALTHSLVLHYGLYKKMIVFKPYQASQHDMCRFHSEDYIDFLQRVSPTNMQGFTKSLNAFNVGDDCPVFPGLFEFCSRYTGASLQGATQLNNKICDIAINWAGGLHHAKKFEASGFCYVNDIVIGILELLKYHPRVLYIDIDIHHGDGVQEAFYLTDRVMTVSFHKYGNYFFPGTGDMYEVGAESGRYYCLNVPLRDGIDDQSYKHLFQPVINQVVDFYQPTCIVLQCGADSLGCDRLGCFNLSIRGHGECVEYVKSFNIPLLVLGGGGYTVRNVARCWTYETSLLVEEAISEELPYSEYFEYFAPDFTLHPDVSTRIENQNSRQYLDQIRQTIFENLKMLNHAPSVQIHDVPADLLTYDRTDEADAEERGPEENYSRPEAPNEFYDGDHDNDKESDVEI

Row | Compound | IC50 (Histone deacetylase 3) | IC50 (Histone deacetylase 1) | IC50 [1]
1 | C=CCCC(=O)Nc1ccc(C(=O)N2CCc3nc(C(=O)NO)sc3C2)cc1 | 9.38 µM | 9.7 µM | 0.39 µM
2 | COc1ccc(/C=C/C(=O)Nc2ccc(C(=O)N3CCc4nc(C(=O)NO)sc4C3)cc2)cc1 | 16.1 µM | 22.5 µM | 0.45 µM
3 | O=C(Nc1ccc(C(=O)N2CCc3nc(C(=O)NO)sc3C2)cc1)c1ccc(-c2ccccc2)s1 | 2.66 µM | 2.59 µM | 0.12 µM
4 | C=CCCC(=O)NCCCN1CCc2nc(C(=O)NO)sc2C1 |  |  | 58.7 µM
5 | O=C(/C=C/c1ccccc1)NCCCN1CCc2nc(C(=O)NO)sc2C1 | 13.5 µM | 39.4 µM | 13.5 µM
6 | COc1ccc(/C=C/C(=O)NCCCN2CCc3nc(C(=O)NO)sc3C2)cc1 | 6.62 µM | 10.3 µM | 8.77 µM
7 | O=C(NCCCN1CCc2nc(C(=O)NO)sc2C1)c1ccc(-c2ccccc2)s1 | 5.09 µM | 5.67 µM | 3.39 µM
8 | C=CCCC(=O)NCCCCN1CCc2nc(C(=O)NO)sc2C1 |  |  | 24.7 µM
9 | O=C(/C=C/c1ccccc1)NCCCCN1CCc2nc(C(=O)NO)sc2C1 | 26.4 µM | 40.1 µM | 23.2 µM
10 | COc1ccc(/C=C/C(=O)NCCCCN2CCc3nc(C(=O)NO)sc3C2)cc1 | 34.1 µM | 35.1 µM | 9.55 µM
11 | O=C(NCCCCN1CCc2nc(C(=O)NO)sc2C1)c1ccc(-c2ccccc2)s1 | 4.89 µM | 6.08 µM | 2.69 µM
12 | C=CCCC(=O)Nc1ccc(C(C)N2CCc3nc(C(=O)NO)sc3C2)cn1 (centres undefined) | 19.2 µM | 65.7 µM | 13.5 µM
13 | CC(c1ccc(NC(=O)/C=C/c2ccccc2)nc1)N1CCc2nc(C(=O)NO)sc2C1 (centres undefined) | 4.8 µM | 6.8 µM | 1.07 µM
14 | COc1ccc(/C=C/C(=O)Nc2ccc(C(C)N3CCc4nc(C(=O)NO)sc4C3)cn2)cc1 (centres undefined) | 5.7 µM | 6.8 µM | 1.55 µM
15 | CC(c1ccc(NC(=O)c2ccc(-c3ccccc3)s2)nc1)N1CCc2nc(C(=O)NO)sc2C1 (centres undefined) | 1.94 µM | 2.96 µM | 1.33 µM
16 | CC(C)N(C(=O)/C=C/c1ccccc1)c1cccc(CN2CCc3nc(C(=O)NO)sc3C2)c1 | 2.19 µM | 11.5 µM | 1.22 µM

Reference: ChEMBL document CHEMBL2046379, “CCLab--a multi-objective genetic algorithm based combinatorial library design software and an application for histone deacetylase inhibitor design” (Bioorg Med Chem Lett, 2012)
